Measurements: patent US12195557B2, “Optimised compounds” (AXELIA ONCOLOGY PTY LTD, priority 2017, dated 2025)
Entries after “also recorded” stand apart in the source; their conditions may differ.

Experiments:
[1] = test system: TLR-2; test: TLR panel, NF-κB inducible SEAP reporter in HEK293 cells: TLR-2; assay type: cell-based, human and mouse
Procedure: INNA-006 was assessed for its ability to activate a range of other TLR pattern recognition receptors. These assessments were conducted using both human and mouse TLR panels. These assays detect a secreted embryonic alkaline phosphatase (SEAP) reporter under the control of a promoter which is inducible by NF-κB activation in HEK293 cells. The secreted embryonic alkaline phosphatase (SEAP) reporter is under the control of a promoter inducible by the transcription factor NF-κB. This reporter gene allows the monitoring of signaling through the TLR, based on the activation of NF-κB. In a 96-well plate (200 μL total volume) containing the appropriate cells (50,000-75,000 cells/well), 20 μL of the test article or the positive control ligand is added to the wells. The media added to the wells is designed for the detection of NF-κB induced SEAP expression. After a 16-24 hr incubation the optical density (OD) is read at 650 nm on a Molecular Devices SpectraMax 340PC absorbance detector. • hTLR2: HKLM (heat-killed Listeria monocytogenes) at 1×10^8 cells/mL • hTLR3: Poly(I:C) HMW at 1 μg/mL • hTLR4: E. coli K12 LPS at 100 ng/mL • hTLR5: S. typhimurium flagellin at 100 ng/mL • hTLR7: CL307 at 1 μg/mL • hTLR8: CL075 at 1 μg/mL • hTLR9: CpG ODN2006 at 1 μg/mL.

[2] = Size exclusion chromatography and LC-MS analysis of micelle aggregates; assay type: physicochemical; conditions: INNA-006 at 0.3 mg/ml in PBS; INNA-011 at 0.4 mg/ml in saline
Procedure: INNA-011 and INNA-006 form micelle-type aggregates in both aqueous and organic solutions. The size distribution and polydispersity of particles of INNA-006 and INNA-011 were determined by dynamic light scattering (DLS) and size exclusion chromatography (University of Melbourne). […] This corresponds to the assembly in a micelle formation of about 266 individual INNA-006 molecules. Using size exclusion chromatography and LC-MS analysis, it was determined that INNA-011 at 0.4 mg/ml is present in saline solution as a single uniform species with a Stoke's radius of ˜7.3 nm and a molecular weight of ˜566,000. This corresponds to the assembly in a micelle formation of about 267 individual INNA-011 molecules.

[3] = human plasma, 37° C., 4 h time course
[4] = in vitro; conditions: human, hepatocytes

CCC(=O)OCC(CSCC(N)C(=O)NC(CO)C(=O)NCCOCC(=O)NCC(N)=O)OC(=O)CC (stereo not drawn) [INNA-006, Pam2Cys-Ser-PEG]
TLR-2 activation [1]: specific TLR-2 activation; also recorded: able to activate | Stokes radius [2]: ~6.3 nm | individual molecules assembled in a micelle formation [2]: about 266 molecules | molecular weight of micelle species [2]: ~377,000 | plasma half-life [3]: could not be calculated due to insufficient degradation | half-life at 0.5 μM [4]: > 6.25 h | hepatocyte CLint at 0.5 μM [4]: < 2 µL/min/1e6 cells
